The text below walks through data of patent US7928099B2, “Pyrimido [4,5-D] azepine derivatives as 5-HT2c agonists” (Pfizer Inc, priority 2007, dated 2011).

Broadly, the Emax is the greatest response seen or fitted, relative to the assay's reference. The term EC50 denotes the concentration that produces a half-maximal response.

The assay deals with T1, human recombinant 5-HT2c receptor (Homo sapiens, UniProt P28335).
T1 construct: expressed in transfected cells; host or cells: CHO K1 (Chinese hamster ovary), stably transfected
T1 sequence (P28335 33-458): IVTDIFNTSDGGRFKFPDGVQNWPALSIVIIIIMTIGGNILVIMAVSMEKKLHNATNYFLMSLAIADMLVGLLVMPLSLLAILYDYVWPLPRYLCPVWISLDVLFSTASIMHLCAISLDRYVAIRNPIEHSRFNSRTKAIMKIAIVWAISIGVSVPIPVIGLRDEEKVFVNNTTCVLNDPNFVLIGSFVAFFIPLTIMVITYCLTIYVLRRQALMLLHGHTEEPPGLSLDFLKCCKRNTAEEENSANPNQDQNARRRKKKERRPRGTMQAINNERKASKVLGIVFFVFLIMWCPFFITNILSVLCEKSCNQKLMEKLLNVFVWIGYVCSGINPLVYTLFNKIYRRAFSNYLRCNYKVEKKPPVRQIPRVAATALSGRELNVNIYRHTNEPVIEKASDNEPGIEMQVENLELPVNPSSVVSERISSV
Briefly: FLIPR fluorescent Ca2+ mobilisation agonist assay in CHO K1 cells (Method 1). The class given is cell-based. Conditions: for Emax: CHO-K1, efficacy; for Emax / Emax %: percentage of mean maximal response to 10 μM 5-HT; for EC50: agonist affinity, FLIPR; for Emax %: efficacy. As for the experimental part: The compounds of the invention were evaluated for biological activity by measuring the agonist affinity (EC50) and efficacy (Emax) at the human recombinant 5-HT2c receptor expressed in CHO K1 cells, using a fluorescent based Ca^2+ mobilisation assay format compatible with FLIPR technology (Method 1). Additionally, the binding activity of a compound was determined by measuring its affinity for the human recombinant 5-HT2c receptor membranes from Swiss 3T3 cells (Method 2).
The agonist affinity of the compounds were tested by measuring their ability to induce a fluorescent based Ca^2+ mobilization signal in a FLIPR assay using CHO K1 cells expressing recombinant human 5-HT2C receptor. Both agonist affinity (EC50) and efficacy (Emax) were determined.
Chinese hamster ovary cells (CHO K1) stably transfected with the 5-HT2c receptor were cultured under standard cell culture techniques. Specifically, cells were grown at 37° C. and 5% CO2 in Dulbecco's Modified Eagle's Medium (DMEM) culture media supplemented with 10% dialysed foetal calf serum (FCS), 1% non-essential amino acids, 1 mM sodium pyruvate, 800 μg/mL geneticin and 50 μg/ml zeocin. Cells were harvested for passaging and storage using trypsin-EDTA, centrifugation and resuspension in culture medium. Cells were grown to 60-80% confluency, harvested and adjusted to 15-20×10^6 cells/ml/vial in medium/10% DMSO and stored long-term at −80° C.
Cells were seeded into black-walled clear-bottomed 384 well plates 24 h before use. Frozen cells were defrosted in a 37° C. water bath and immediately transferred into 1 mL/vial 37° C. culture medium, diluted to 10 ml and DMSO removed by centrifugation. The cells were resuspended in 15 ml/vial of cell culture medium, counted and adjusted to give 500,000 cells/mL (10,000 cells/well). […] of cell suspension was added to the 384 well plates which were then incubated overnight at 37° C.
The maximum agonist response was determined with 5-HT at a final assay concentration of 10 μM in the diluent above. The minimum response was determined with Dulbeccos PBS (+CaCl2, +MgCl2) with 0.9% DMSO and 0.05% pluronic F-127. Test compounds, maximum and minimum controls were added to a 384 well polypropylene plate.
The FLIPR calcium assay reagent was diluted with assay buffer (Hank's Balanced Salt Solution (HBSS))/20 mM HEPES and 2.5 mM probenecid (diluted with 1M Sodium hydroxide and DPBS (+CaCl2, +MgCl2)).
20 μl/well FLIPR calcium assay reagent was added to the cell plates, which were incubated for 1 h at 37° C. Cell plates and compound plates were then transferred onto the FLIPR. The assay was run using the appropriate FLIPR program, which initiates the reaction by transferring 15 μL compound into the corresponding, well of the cell plate.
The statistical parameter exported from each well was the max peak height of the response.

Take `CCCCNc1nc(N2CCSCC2)nc2c1CCNCC2` [Example 89, N-butyl-2-thiomorpholin-4-yl-6,7,8,9-tetrahydro-5H-pyrimido[4,5-d]-azepin-4-amine]: the Emax came to 48.2% and the EC50 was 0.0336 µM.

Take `CN(C)c1nc2c(c(N(C)C)n1)CCNCC2` [Example 107, N,N,N′,N′-tetramethyl-6,7,8,9-tetrahydro-5H-pyrimido[4,5-d]azepine-2,4-diamine]: the Emax came out at 43.2% and the EC50 was determined as 0.363 µM.

With `CCNc1nc2c(c(N(C)CC3CC3)n1)CCNCC2` [Example 112, N-4-(cyclopropylmethyl)-N-2-ethyl-N-4-methyl-6,7,8,9-tetrahydro-5H-pyrimido[4,5-d]azepine-2,4-diamine], the Emax amounted to 42.8% and the EC50 came to 0.543 µM.

Turning to `C1Cc2nc(N3CCSCC3)nc(N3CCSCC3)c2CCN1` [Example 94, 2,4-dithiomorpholin-4-yl-6,7,8,9-tetrahydro-5H-pyrimido[4,5-d]azepine], the Emax was determined as 80.8% and the EC50 stood at 0.261 µM.

In the case of `CN1CCC[C@H]1COc1nc(Cc2ccccc2)nc2c1CCNCC2` [Example 78, 2-benzyl-4-{[(2S)-1-methylpyrrolidin-2-yl]methoxy}-6,7,8,9-tetrahydro-5H-pyrimido[4,5-d]azepine], the Emax came out at 69.5% and the EC50 was determined as 0.138 µM.

Turning to `CC(CN1CCOCC1)Oc1nc(Cc2ccccc2)nc2c1CCNCC2` (stereo not drawn) [Example 82, 2-benzyl-4-(1-methyl-2-morpholin-4-ylethoxy)-6,7,8,9-tetrahydro-5H-pyrimido[4,5-d]azepine], the Emax was 71.9% and the EC50 was 0.304 µM.

Turning to `CCN(C)c1nc(N2CCSCC2)nc2c1CCNCC2` [Example 92, N-ethyl-N-methyl-2-thiomorpholin-4-yl-6,7,8,9-tetrahydro-5H-pyrimido-[4,5-d]azepin-4-amine], the Emax was determined as 77.3% and the concentration giving a half-maximal response (EC50) came to 0.09 µM.

As to `c1ccc(CNc2nc(N3CCC3)nc3c2CCNCC3)cc1` [Example 108, 2-azetidin-1-yl-N-benzyl-6,7,8,9-tetrahydro-5H-pyrimido[4,5-d]azepin-4-amine], the Emax was found to be 44.4% and the EC50 was determined as 0.149 µM.

For the molecule `Fc1cccc(Cc2ncc3c(n2)CCNCC3)c1` [Example 61, 2-(3-Fluorobenzyl)-6,7,8,9-tetrahydro-5H-pyrimido[4,5-d]azepine], the Emax stood at 67.1% and the EC50 stood at 0.125 µM.

Turning to `c1ccc(Cc2nc3c(c(OCC4CCCO4)n2)CCNCC3)cc1` (stereo not drawn) [Example 74, 2-benzyl-4-(2-tetra-hydrofuran-2-ylmethoxy)-6,7,8,9-tetrahydro-5H-pyrimido[4,5-d]azepine], the Emax was 86.7% and the EC50 amounted to 0.0171 µM.

Turning to `CCN(C)c1nc2c(c(NCC(C)C)n1)CCNCC2` [Example 101, N-2-ethyl-N-4-isobutyl-N-2-methyl-6,7,8,9-tetra-hydro-5H-pyrimido[4,5-d]azepine-2,4-diamine], the Emax was 49.9% and the EC50 is 0.326 µM.

Take `CC(COc1nc(Cc2ccccc2)nc2c1CCNCC2)N(C)C` (stereo not drawn) [Example 83, 1-[(2-benzyl-6,7,8,9-tetrahydro-5H-pyrimido-[4,5-d]azepin-4-yl)oxy]-N,N-dimethylpropan-2-amine]: the Emax was determined as 45.7% and the EC50 came to 0.338 µM.

Regarding `CN1CCC(COc2nc(Cc3ccccc3)nc3c2CCNCC3)CC1` [Example 85, 2-benzyl-4-[(1-methyl-piperidin-4-yl)methoxy]-6,7,8,9-tetrahydro-5H-pyrimido[4,5-d]azepine], the Emax turned out to be 86.3% and the EC50 amounted to 0.421 µM.

For `CCN(C)c1nc2c(c(NC)n1)CCNCC2` [Example 102, N-2-ethyl-N-2,N-4-dimethyl-6,7,8,9-tetra-hydro-5H-pyrimido[4,5-d]-azepine-2,4-diamine], the Emax was determined as 74.3% and the EC50 was found to be 0.173 µM.

Consider `CN(Cc1ccccc1)c1nc2c(c(N3CCOCC3)n1)CCNCC2` [Example 105, N-benzyl-N-methyl-4-morpholin-4-yl-6,7,8,9-tetrahydro-5H-pyrimido-[4,5-d]azepin-2-amine], for which the Emax was 64.1% and the EC50 was 0.202 µM.

In the case of `CCN(C)c1nc2c(c(NCC3CC3)n1)CCNCC2` [Example 99, N-4-(cyclopropylmethyl)-N-2-ethyl-N-2-methyl-6,7,8,9-tetrahydro-5H-pyrimido[4,5-d]azepin-4-amine], the Emax was 69.5% and the EC50 amounted to 0.103 µM.

Take `CN(C)c1nc(N(C)Cc2ccccc2)nc2c1CCNCC2` [Example 113, N-2-benzyl-N-2,N-4,N-4-trimethyl-6,7,8,9-tetra-hydro-5H-pyrimido[4,5-d]azepine-2,4-diamine]: the EC50 is 0.279 µM and the Emax % is on record as 50.8%.

For “N-benzyl-N-methyl-6,7,8,9-tetrahydro-5H-pyrimido[4,5-d]azepin-2-amine hydrochloride [Example 49]”, the EC50 was 0.182 µM and the Emax % worked out at 71.20%.

Consider `FC(F)(F)CCCOc1nc(Cc2ccccc2)nc2c1CCNCC2` [Example 84, 2-benzyl-4-(4,4,4-trifluorobutoxy)-6,7,8,9-tetrahydro-5H-pyrimido[4,5-d]azepine], for which the Emax came out at 36.4% and the EC50 was determined as 0.395 µM.

Consider `C1Cc2nc(N3CCOCC3)nc(N3CCSCC3)c2CCN1` [Example 96, 2-morpholin-4-yl-4-thio-morpholin-4-yl-6,7,8,9-tetrahydro-5H-pyrimido-[4,5-d]azepin-4-amine], for which the Emax was determined as 66.9% and the EC50 worked out at 0.311 µM.

With `CCNc1nc(N2CCc3ccccc3C2)nc2c1CCNCC2` [Example 87, 2-(3,4-dihydroisoquinolin-2(1H)-yl)-N-ethyl-6,7,8,9-tetrahydro-5H-pyrimido-[4,5-d]azepin-4-amine], the Emax came to 57.1% and the EC50 worked out at 0.0483 µM.

`N#Cc1ccc(CCOc2nc(Cc3ccccc3)nc3c2CCNCC3)cc1` [Example 75, 4-{2-[(2-benzyl-6,7,8,9-tetrahydro-5H-pyrimido-[4,5-d]azepin-4-yl)oxy]ethyl}-benzonitrile]: the maximal response (Emax) came out at 90.1% and the EC50 is 0.0581 µM.

With `Fc1ccccc1Cc1ncc2c(n1)CCNCC2` [Example 60, 2(2-Fluorobenzyl)-6,7,8,9-tetrahydro-5H-pyrimido[4,5-d]azepine], the Emax was 65.1% and the EC50 worked out at 0.194 µM.

Turning to `c1ccc(Cc2nc3c(c(OCC4CCOCC4)n2)CCNCC3)cc1` [Example 80, 2-benzyl-4-(tetrahydro-2H-pyran-4-ylmethoxy)-6,7,8,9-tetrahydro-5H-pyrimido[4,5-d]azepine], the Emax turned out to be 74.2% and the EC50 was 0.184 µM.

Regarding `c1ccc2c(c1)CCN(c1nc3c(c(N4CCSCC4)n1)CCNCC3)C2` [Example 88, 2-(3,4-dihydroisoquinolin-2(1H)-yl)-4-thiomorpholin-4-yl-6,7,8,9-tetrahydro-5H-pyrimido[4,5-d]-azepin-4-amine], the Emax was 67.6% and the EC50 amounted to 0.838 µM.

For `CNc1nc(N2CCSCC2)nc2c1CCNCC2` [Example 93, N-methyl-2-thio-morpholin-4-yl-6,7,8,9-tetrahydro-5H-pyrimido-[4,5-d]azepin-4-amine], the Emax is 77% and the EC50 came out at 0.0115 µM.

For `C1Cc2nc(NC3CC3)nc(N3CCSCC3)c2CCN1` [Example 109, N-cyclopropyl-4-thio-morpholin-4-yl-6,7,8,9-tetrahydro-5H-pyrimido-[4,5-d]azepin-2-amine], the maximal effect (Emax) was 87.7% and the EC50 turned out to be 0.247 µM.
